Reference: paper PMC9736374, “Design, Synthesis and Antimicrobial Properties of New Tetracyclic Quinobenzothiazine Derivatives” (International Journal of Molecular Sciences, 2022)
Values after ≈ are worked out from the molar mass of the structure shown.

Tests used:
[1] = tested on: Staphylococcus aureus ATCC 29213; experiment: MIC, microtitration broth method; type: cell-based; conditions: ATCC29213; SA = Staphylococcus aureus ATCC 29213; 24 h, 37 °C
M. smegmatis ATCC 700084 = experiment: In vitro antimycobacterial MIC, broth dilution micro-method; type: cell-based, Mycobacterium smegmatis; conditions: Mycolicibacterium smegmatis, ATCC700084, 72 h; MS = M. smegmatis ATCC 700084; 3 days, 37 °C
[2] = tested on: vancomycin-resistant E. faecalis VRE 342B (VRE1); experiment: MIC, microtitration broth method; type: cell-based, Enterococcus faecalis; conditions: VRE1 = VRE 342B; 24 h, 37 °C
[3] = tested on: vancomycin-resistant E. faecalis VRE 725B (VRE3); experiment: MIC, microtitration broth method; type: cell-based, Enterococcus faecalis; conditions: VRE3 = VRE 725B; 24 h, 37 °C
Lipophilicity by RP-TLC = type: physicochemical; conditions: Tris buffer pH 7.4/acetone, read-out: logPTLC
Method: The lipophilicity parameters were determined experimentally using reverse phase thin-layer chromatography (RP-TLC). Chromatograms were prepared on RP-18F254s plates (1.05559.0001, Merck, Germany) precoated with nonpolar silicone oil. Plates were developed in glass chromatography chambers previously saturated with vapor of mobile phase. The mobile phase was composed of 0.2M Tris buffer (pH = 7.4) and acetone in different concentrations, i.e., 50%, 60%, 70%, 80 and 90%. The chromatograms were visualised in UV light (λ = 254 nm). Determination of the RF coefficient was carried out twice for all compounds; in all cases, acetone concentrations used. The final value of RF is the mean of the two measurements. The obtained RF coefficient was used to calculate the value of the RM parameter according to the equation: RM = log [(1/RF) − 1]. By extrapolating RM values to zero acetone concentration, a relative RM0 lipophilicity parameter was obtained, according to the equation: RM = RM0 + bC, where b is slope and C is concentration of acetone in mobile phase. Based on RM0 and the calibration curve, the values of logPTLC for compounds 6a–l were determined. The calibration curve was calculated using the relationship between RM0 of the standard molecules (acetanilide, p-kresol, p-bromoacetophenone, benzophenone, anthracene) and the corresponding logP parameters specified by the extraction method, respectively. RM0 parameters of the standard molecules and quinobenzothiazine derivatives 6a–l were determined in the same empirical conditions.

[4] = tested on: normal human dermal fibroblasts (NHDF); experiment: In vitro cell viability, WST-1 assay; type: cell-based; conditions: 72 h
Method: Compounds were evaluated for their antiproliferative activity using NHDF (normal human dermal fibroblasts, ATCC, Manassas, VA, USA). The cultured cells were kept at 37 °C and 5% CO2. The cells were seeded (1 × 10^4 cells/well/100 μL DMEM supplemented with 10% FCS and streptomycin/penicillin) into 96-well plates (Corning Inc., Corning, NY, USA). Cells were counted using a hemocytometer (Burker chamber) and phase contrast Olympus IX50 microscope equipped with Sony SSC-DC58 AP camera and Olympus DP10 digital camera. The cell viability of the compounds was determined using the Cell Proliferation Reagent WST-1 assay (Roche Molecular Biochemicals, Mannheim, Germany). The examined cells were exposed to the tested compounds (1 mg/mL DMSO stock) for 72 h at various concentrations (0.1–100 μg/mL). The control was included in order to eliminate the DMSO effect at the concentration used. Cell cultures were incubated with WST-1 (10 μL) for 1 h. The absorbance of the samples was measured against a background control at 450 nm using a microplate reader with a reference wavelength at 600 nm. The obtained results are expressed as means of at least two independent experiments performed in triplicate.

[5] = tested on: methicillin-resistant S. aureus SA 630 (MRSA2); experiment: MBC, agar aliquot subculture method; type: cell-based; conditions: Staphylococcus aureus; MRSA2 = SA 630
[6] = tested on: methicillin-resistant S. aureus 63718 (MRSA3); experiment: MBC, agar aliquot subculture method; type: cell-based; conditions: Staphylococcus aureus; MRSA3 = 63718
[7] = tested on: vancomycin-resistant E. faecalis VRE 368 (VRE2); experiment: MIC, microtitration broth method; type: cell-based, Enterococcus faecalis; conditions: VRE2 = VRE 368; 24 h, 37 °C
[8] = tested on: Mycobacterium marinum CAMP 5644; experiment: In vitro antimycobacterial MIC, broth dilution micro-method; type: cell-based; conditions: CAMP5644, 504 h; MM = Mycobacterium marinum CAMP 5644; 21 days, 28 °C
[9] = tested on: vancomycin-resistant E. faecalis VRE 725B (VRE3); experiment: MBC, agar aliquot subculture method; type: cell-based, Enterococcus faecalis; conditions: VRE3 = VRE 725B
[10] = tested on: Enterococcus faecalis ATCC 29212; experiment: MBC, agar aliquot subculture method; type: cell-based; conditions: ATCC29212; EF = Enterococcus faecalis
[11] = tested on: vancomycin-resistant E. faecalis VRE 342B (VRE1); experiment: MBC, agar aliquot subculture method; type: cell-based, Enterococcus faecalis; conditions: VRE1 = VRE 342B
[12] = tested on: Enterococcus faecalis ATCC 29212; experiment: MIC, microtitration broth method; type: cell-based; conditions: ATCC29212; EF = Enterococcus faecalis; 24 h, 37 °C
[13] = tested on: Staphylococcus aureus ATCC 29213; experiment: MBC, agar aliquot subculture method; type: cell-based; conditions: ATCC29213; SA = Staphylococcus aureus ATCC 29213
[14] = tested on: methicillin-resistant S. aureus SA 3202 (MRSA1); experiment: MIC, microtitration broth method; type: cell-based; conditions: Staphylococcus aureus; MRSA1 = SA 3202; 24 h, 37 °C
[15] = tested on: methicillin-resistant S. aureus SA 630 (MRSA2); experiment: MIC, microtitration broth method; type: cell-based; conditions: Staphylococcus aureus; MRSA2 = SA 630; 24 h, 37 °C
[16] = tested on: methicillin-resistant S. aureus SA 3202 (MRSA1); experiment: MBC, agar aliquot subculture method; type: cell-based; conditions: Staphylococcus aureus; MRSA1 = SA 3202
[17] = tested on: vancomycin-resistant E. faecalis VRE 368 (VRE2); experiment: MBC, agar aliquot subculture method; type: cell-based, Enterococcus faecalis; conditions: VRE2 = VRE 368
[18] = tested on: methicillin-resistant S. aureus 63718 (MRSA3); experiment: MIC, microtitration broth method; type: cell-based; conditions: Staphylococcus aureus; MRSA3 = 63718; 24 h, 37 °C
[19] = tested on: S. aureus ATCC 29213 respiratory activity; experiment: MTT assay of bacterial respiration; type: cell-based, Staphylococcus aureus; conditions: for Conc.: corresponding multiple of MBC with at least 70% inhibition of respiratory activity / Conc.: lowest multiple of MIC with at least 70% inhibition of respiratory activity: S. aureus ATCC 29213, MTT, 24 h

Row | SMILES | MIC [1] [µM] | MIC (M. smegmatis ATCC 700084) [µM] | MIC [2] [µM] | MIC [3] [µM] | chromatographic logP (Lipophilicity by RP-TLC) | IC50 [4] [µM] | MBC [5] [µM] | MBC [6] [µM] | MIC [7] [µM] | MIC [8] [µM] | MBC [9] [µM] | MBC [10] [µM] | MBC [11] [µM] | MIC [12] [µM] | MBC [13] [µM] | MIC [14] [µM] | MIC [15] [µM] | MBC [16] [µM] | MBC [17] [µM] | MIC [18] [µM] | other results
1 | CCCOc1cccc2c1Nc1c(c[n+](C)c3ccccc13)S2 [Compound 6c, 11-propoxy-5-methyl-12H-quino[3,4-b][1,4]benzothiazinium chloride] | 178 | 44.6 | 178 | 89.1 | 1.18 | > 100 | 178 | 178 | 178 | 44.6 | 178 | 178 | 178 | 178 | 178 | 178 | 178 | 178 | 178 | 178 | 
2 | C[n+]1cc2c(c3ccccc31)Nc1c(OCc3ccccc3)cccc1S2 [Compound 6l, 11-benzyloxy-5-methyl-12H-quino[3,4-b][1,4]benzothiazinium chloride] | 39.3 | 39.3 | 157 | 157 | 3.1 | > 100 | 78.6 | 39.3 | 157 | 9.83 | 157 | 157 | 157 | 157 | 39.3 | 39.3 | 78.6 | 78.6 | 157 | 39.3 | 
3 | O=C(O)c1cn(C2CC2)c2cc(N3CCNCC3)c(F)cc2c1=O [CPX, ciprofloxacin, reference compound] |  |  |  |  |  |  |  |  |  |  |  |  |  |  |  |  |  |  |  |  | Conc.: corresponding multiple of MBC with at least 70% inhibition of respiratory activity [19]: 32× MIC (32× MBC); Conc.: lowest multiple of MIC with at least 70% inhibition of respiratory activity [19]: 32× MIC (32× MBC); S. aureus Respiration Inhibition ([19]; at the concentration given): 96.1%
4 | CC1(C)S[C@@H]2[C@H](NC(=O)[C@H](N)c3ccccc3)C(=O)N2[C@H]1C(=O)O [AMP, ampicillin, reference compound] | 5.72 (≈ 2 µg/mL) |  |  |  |  |  |  |  |  |  |  | 2.81 (≈ 0.982 µg/mL) |  | 2.81 (≈ 0.982 µg/mL) | 5.72 (≈ 2 µg/mL) |  |  |  |  |  | Conc.: corresponding multiple of MBC with at least 70% inhibition of respiratory activity [19]: 16× MIC (>16× MBC); Conc.: lowest multiple of MIC with at least 70% inhibition of respiratory activity [19]: 16× MIC (>16× MBC)
5 | CO[C@H]1/C=C/O[C@@]2(C)Oc3c(C)c(O)c4c(O)c(c(/C=N/N5CCN(C)CC5)c(O)c4c3C2=O)NC(=O)/C(C)=C\C=C\[C@H](C)[C@H](O)[C@@H](C)[C@@H](O)[C@@H](C)[C@H](OC(C)=O)[C@@H]1C [RIF, rifampicin, reference compound] |  | 19.4 (≈ 16 µg/mL) |  |  |  |  |  |  |  | 2.43 (≈ 2 µg/mL) |  |  |  |  |  |  |  |  |  |  | 
6 | CN(C)[C@@H]1C(O)=C(C(N)=O)C(=O)[C@@]2(O)C(O)=C3C(=O)c4c(O)cccc4[C@@](C)(O)[C@H]3C[C@@H]12 [TTC, tetracycline, reference compound] | 4.52 (≈ 2.01 µg/mL) |  |  |  |  |  |  |  |  |  |  |  |  |  |  | 36.1 (≈ 16 µg/mL) | 36.1 (≈ 16 µg/mL) |  |  | > 72.1 | 
7 | C=CCOc1ccc2c(c1)Sc1c[n+](C)c3ccccc3c1N2 [Compound 6d, 9-allyloxy-5-methyl-12H-quino[3,4-b][1,4]benzothiazinium chloride] | 44.8 | 22.4 | 44.8 | 22.4 | 2.98 | > 100 | 89.6 | 44.8 | 44.8 | 11.2 | 44.8 | 44.8 | 44.8 | 44.8 | 44.8 | 44.8 | 89.6 | 44.8 | 44.8 | 44.8 | 
8 | C#CCOc1cccc2c1Nc1c(c[n+](C)c3ccccc13)S2 [Compound 6i, 11-propargyloxy-5-methyl-12H-quino[3,4-b][1,4]benzothiazinium chloride] | 180 | 90.1 | 180 | 180 | 2.2 | 47.5 | 361 | 180 | 180 | 45.1 | 180 | 361 | 180 | 361 | 180 | 180 | 361 | 361 | 180 | 180 | 
9 | NNC(=O)c1ccncc1 [INH, isoniazid, reference compound] |  | 117 (≈ 16 µg/mL) |  |  |  |  |  |  |  | 467 (≈ 64 µg/mL) |  |  |  |  |  |  |  |  |  |  | 
10 | C#CCOc1ccc2c(c1)Nc1c(c[n+](C)c3ccccc13)S2 [Compound 6h, 10-propargyloxy-5-methyl-12H-quino[3,4-b][1,4]benzothiazinium chloride] | 45.1 | 22.5 | 45.1 | 22.5 | 1.74 | > 100 | 90.1 | 45.1 | 45.1 | 22.5 | 22.5 | 45.1 | 45.1 | 45.1 | 45.1 | 90.1 | 90.1 | 90.1 | 45.1 | 45.1 | 
11 | Cc1onc(-c2ccccc2)c1C(=O)N[C@@H]1C(=O)N2[C@@H]1SC(C)(C)[C@@H]2C(=O)O [OXA, oxacillin, reference compound] | 1.25 (≈ 0.502 µg/mL) |  |  |  |  |  | 29.7 (≈ 11.9 µg/mL) | 9.9 (≈ 3.97 µg/mL) |  |  |  |  |  |  | 1.25 (≈ 0.502 µg/mL) | 79.8 (≈ 32 µg/mL) | 29.7 (≈ 11.9 µg/mL) | 79.8 (≈ 32 µg/mL) |  | 9.9 (≈ 3.97 µg/mL) | 
12 | COc1cccc2c1C(=O)c1c(O)c3c(c(O)c1C2=O)C[C@@](O)(C(=O)CO)C[C@@H]3O[C@H]1C[C@H](N)[C@H](O)[C@H](C)O1 [doxorubicin, reference compound] |  |  |  |  |  | 5.5 |  |  |  |  |  |  |  |  |  |  |  |  |  |  | 
